For series [1] the following is noted: 298.15 K; 101.33 kPa; Liquid; Pycnometric method.
Series [2] in a line: Boiling temperature at pressure P. Conditions: 101 kPa; Liquid; Ebulliometric method (Recirculating still).
Series [3] in a line: refractive index (Na D-line) (dimensionless). The conditions noted are these: 298.15 K; 101.33 kPa; Liquid; Standard Abbe refractometry.

Numbers after ± are expanded uncertainties.

On to `CC(C)CCO` [3-methylbutan-1-ol], for which the mass density in series [1] is 811.04 ± 0.6 kg/m3. Besides, in series [2], the “Boiling temperature at pressure P” value was found to be 131.1 ± 0.4 °C. Also, the refractive index in series [3] turned out to be 1.4155 ± 0.0005.
The like results for `CCCOC(C)=O` [propyl ethanoate] were, in that order, 882.8 ± 0.68 kg/m3, 101.5 ± 0.4 °C and 1.3821 ± 0.0005.
`CCCC(C)O` (configuration not stated) [pentan-2-ol]: in series [1], the mass density turned out to be 806.57 ± 0.61 kg/m3. For the same compound, in series [2], the “Boiling temperature at pressure P” value is 119.1 ± 0.4 °C. Moreover, the refractive index in series [3] came to 1.4048 ± 0.0005.
The like results for `CCCCCO` [pentan-1-ol] were, in that order, 810.12 ± 0.6 kg/m3, 137.8 ± 0.4 °C and 1.4078 ± 0.0005.

These data come from the NIST ThermoML archive (doi:10.1021/je4007184).
